In ChEMBL document CHEMBL3885881, “DrugMatrix”:

Species on record: Rattus norvegicus
Assay: DrugMatrix - Regimen: Daily Repeat
Format: toxicity, organism-based, Sprague-Dawley
Set-up: regimen Daily Repeat, gender Male, age 6-8 weeks
Details: in vivo, po, route oral GAVAGE, vehicle 100 % WATER; for ABSOLUTE BASOPHIL / ABSOLUTE EOSINOPHIL / ABSOLUTE LYMPHOCYTE / ABSOLUTE MONOCYTE / ABSOLUTE SEGMENTED NEUTROPHIL / BASOPHIL / EOSINOPHIL / ERYTHROCYTE COUNT / HEMATOCRIT / HEMOGLOBIN / LEUKOCYTE COUNT / LYMPHOCYTE / MEAN CORPUSCULAR HEMOGLOBIN / MEAN CORPUSCULAR HEMOGLOBIN CONCENTRATION / MEAN CORPUSCULAR VOLUME / MONOCYTE / NEUTROPHIL / NUCLEATED RED BLOOD CELLS / PLATELET COUNT: tissue Blood; for ALANINE AMINOTRANSFERASE / ALBUMIN / ALKALINE PHOSPHATASE / ASPARTATE AMINOTRANSFERASE / BLOOD UREA NITROGEN / CARBON DIOXIDE / CHLORIDE / CHOLESTEROL / CREATINE PHOSPHOKINASE / CREATININE / GLUCOSE / LACTATE DEHYDROGENASE / LIPASE / PHOSPHORUS / POTASSIUM / SODIUM / TOTAL BILIRUBIN / TOTAL PROTEIN / URIC ACID: tissue Plasma
[1] = 0 mg/kg, 72 h, dose level Control, time 3 day
[2] = 0 mg/kg, 120 h, dose level Control, time 5 day
[3] = 30 mg/kg, 72 h, dose level Low, time 3 day

For CC(C)NCC(O)c1ccc(NS(C)(=O)=O)cc1 (centres undefined) [SOTALOL], the “ABSOLUTE BASOPHIL” value [1] was 0 CELLS/uL, the “ABSOLUTE EOSINOPHIL” value [1] was 102 CELLS/uL and the “ABSOLUTE LYMPHOCYTE” value [1] was 12758 CELLS/uL. The “ABSOLUTE MONOCYTE” value [1] was 197.17 CELLS/uL, the “ABSOLUTE SEGMENTED NEUTROPHIL” value [1] was 1259.5 CELLS/uL and the BASOPHIL [1] was 0%. For the same compound, the EOSINOPHIL [1] was 0.83%, the “ERYTHROCYTE COUNT” value [1] was 5.3 x10E6/uL and the HEMATOCRIT [1] was 33.47%. The HEMOGLOBIN [1] was 13.12 G/DL, the “LEUKOCYTE COUNT” value [1] was 14.32 x10E3/uL and the LYMPHOCYTE [1] was 89.33%. The “MEAN CORPUSCULAR HEMOGLOBIN” value [1] was 24.8 pg, the “MEAN CORPUSCULAR HEMOGLOBIN CONCENTRATION” value [1] was 39.18 G/DL and the “MEAN CORPUSCULAR VOLUME” value [1] was 63.25 fL. The MONOCYTE [1] was 1.33%, the NEUTROPHIL [1] was 8.5% and the “NUCLEATED RED BLOOD CELLS” value [1] was 0 /100WBC. The “PLATELET COUNT” value [1] was 1313.17 x10E3/uL, the “ALANINE AMINOTRANSFERASE” value [1] was 52.67 u/L and the ALBUMIN [1] was 4.05 G/DL. The “ALKALINE PHOSPHATASE” value [1] was 372 u/L, the “ASPARTATE AMINOTRANSFERASE” value [1] was 82.83 u/L and the “BLOOD UREA NITROGEN” value [1] was 15 mg/dL. The “CARBON DIOXIDE” value [1] was 25.67 mmol/L, the CHLORIDE [1] was 102.17 MEQ/L and the CHOLESTEROL [1] was 68.83 mg/dL. The “CREATINE PHOSPHOKINASE” value [1] was 285 u/L, the CREATININE [1] was 0.18 mg/dL and the GLUCOSE [1] was 149.17 mg/dL. For the same compound, the “LACTATE DEHYDROGENASE” value [1] was 263.83 u/L, the LIPASE [1] was 10.17 u/L and the PHOSPHORUS [1] was 12.58 mg/dL. For the same compound, the POTASSIUM [1] was 6.58 MEQ/L, the SODIUM [1] was 144.22 MEQ/L and the “TOTAL BILIRUBIN” value [1] was 0.22 mg/dL. For the same compound, the “TOTAL PROTEIN” value [1] was 5.83 G/DL, the “URIC ACID” value [1] was 1.58 mg/dL and the “ABSOLUTE BASOPHIL” value [2] was 0 CELLS/uL. The “ABSOLUTE EOSINOPHIL” value [2] was 24 CELLS/uL, the “ABSOLUTE LYMPHOCYTE” value [2] was 11134.17 CELLS/uL and the “ABSOLUTE MONOCYTE” value [2] was 56.33 CELLS/uL. The “ABSOLUTE SEGMENTED NEUTROPHIL” value [2] was 1235.5 CELLS/uL, the BASOPHIL [2] was 0% and the EOSINOPHIL [2] was 0.17%. For the same compound, the “ERYTHROCYTE COUNT” value [2] was 5.68 x10E6/uL, the HEMATOCRIT [2] was 35.72% and the HEMOGLOBIN [2] was 13.93 G/DL. The “LEUKOCYTE COUNT” value [2] was 12.45 x10E3/uL, the LYMPHOCYTE [2] was 89.5% and the “MEAN CORPUSCULAR HEMOGLOBIN” value [2] was 24.63 pg. For the same compound, the “MEAN CORPUSCULAR HEMOGLOBIN CONCENTRATION” value [2] was 39.13 G/DL, the “MEAN CORPUSCULAR VOLUME” value [2] was 62.97 fL and the MONOCYTE [2] was 0.5%. For the same compound, the NEUTROPHIL [2] was 9.83%, the “NUCLEATED RED BLOOD CELLS” value [2] was 0 /100WBC and the “PLATELET COUNT” value [2] was 1204 x10E3/uL. For the same compound, the “ALANINE AMINOTRANSFERASE” value [2] was 59.5 u/L, the ALBUMIN [2] was 4.38 G/DL and the “ALKALINE PHOSPHATASE” value [2] was 415.67 u/L. The “ASPARTATE AMINOTRANSFERASE” value [2] was 91.33 u/L, the “BLOOD UREA NITROGEN” value [2] was 17 mg/dL and the “CARBON DIOXIDE” value [2] was 26.33 mmol/L. For the same compound, the CHLORIDE [2] was 104.17 MEQ/L, the CHOLESTEROL [2] was 77 mg/dL and the “CREATINE PHOSPHOKINASE” value [2] was 249.67 u/L. The CREATININE [2] was 0.21 mg/dL, the GLUCOSE [2] was 148.33 mg/dL and the “LACTATE DEHYDROGENASE” value [2] was 168.5 u/L. It also gave an LIPASE [2] of 10.17 u/L, a PHOSPHORUS [2] of 12.92 mg/dL and a POTASSIUM [2] of 7.09 MEQ/L. The SODIUM [2] was 148.37 MEQ/L, the “TOTAL BILIRUBIN” value [2] was 0.23 mg/dL and the “TOTAL PROTEIN” value [2] was 6.3 G/DL. The “URIC ACID” value [2] was 1.77 mg/dL, the “ABSOLUTE BASOPHIL” value [3] was 0 CELLS/uL and the “ABSOLUTE EOSINOPHIL” value [3] was 90.67 CELLS/uL. The “ABSOLUTE LYMPHOCYTE” value [3] was 14675.33 CELLS/uL, the “ABSOLUTE MONOCYTE” value [3] was 254 CELLS/uL and the “ABSOLUTE SEGMENTED NEUTROPHIL” value [3] was 1113.33 CELLS/uL. The BASOPHIL [3] was 0%, the EOSINOPHIL [3] was 0.67% and the “ERYTHROCYTE COUNT” value [3] was 5.44 x10E6/uL. For the same compound, the HEMATOCRIT [3] was 34.57%, the HEMOGLOBIN [3] was 13.43 G/DL and the “LEUKOCYTE COUNT” value [3] was 16.13 x10E3/uL. For the same compound, the LYMPHOCYTE [3] was 91%, the “MEAN CORPUSCULAR HEMOGLOBIN” value [3] was 24.7 pg and the “MEAN CORPUSCULAR HEMOGLOBIN CONCENTRATION” value [3] was 38.93 G/DL. For the same compound, the “MEAN CORPUSCULAR VOLUME” value [3] was 63.47 fL, the MONOCYTE [3] was 1.67% and the NEUTROPHIL [3] was 6.67%. For the same compound, the “NUCLEATED RED BLOOD CELLS” value [3] was 0.67 /100WBC, the “PLATELET COUNT” value [3] was 1241 x10E3/uL and the “ALANINE AMINOTRANSFERASE” value [3] was 52.67 u/L. The ALBUMIN [3] was 4.13 G/DL, the “ALKALINE PHOSPHATASE” value [3] was 380.33 u/L and the “ASPARTATE AMINOTRANSFERASE” value [3] was 95.67 u/L. The “BLOOD UREA NITROGEN” value [3] was 15 mg/dL, the “CARBON DIOXIDE” value [3] was 25.67 mmol/L and the CHLORIDE [3] was 102 MEQ/L. The CHOLESTEROL [3] was 74 mg/dL, the “CREATINE PHOSPHOKINASE” value [3] was 490.33 u/L and the CREATININE [3] was 0.16 mg/dL. The GLUCOSE [3] was 152.33 mg/dL, the “LACTATE DEHYDROGENASE” value [3] was 497 u/L and the LIPASE [3] was 10.33 u/L. It also gave a PHOSPHORUS [3] of 13.97 mg/dL, a POTASSIUM [3] of 6.87 MEQ/L and an SODIUM [3] of 144.53 MEQ/L. The “TOTAL BILIRUBIN” value [3] was 0.23 mg/dL, the “TOTAL PROTEIN” value [3] was 5.8 G/DL and the “URIC ACID” value [3] was 2.13 mg/dL.
